Laboratory results published in US12037344B2, “NLRP3 modulators” (INNATE TUMOR IMMUNITY, INC., priority 2018, dated 2024).
Structures can show the parent of a compound that is named as a salt. Where two headings read alike, the source gives them in different places.

What was measured:
TLR7 = target: T1, TLR7 (Homo sapiens, UniProt Q9NYK1); experiment: In vitro human TLR7 binding reporter assay (HEK-Blue, NF-kB/AP1-inducible SEAP); type: cell-based; conditions: activity range class, read-out: TLR7 Agonist EC50
T1 construct: human HEK-Blue cells co-expressing a TLR7 or TLR8 gene
T1 sequence (Q9NYK1 27-1049): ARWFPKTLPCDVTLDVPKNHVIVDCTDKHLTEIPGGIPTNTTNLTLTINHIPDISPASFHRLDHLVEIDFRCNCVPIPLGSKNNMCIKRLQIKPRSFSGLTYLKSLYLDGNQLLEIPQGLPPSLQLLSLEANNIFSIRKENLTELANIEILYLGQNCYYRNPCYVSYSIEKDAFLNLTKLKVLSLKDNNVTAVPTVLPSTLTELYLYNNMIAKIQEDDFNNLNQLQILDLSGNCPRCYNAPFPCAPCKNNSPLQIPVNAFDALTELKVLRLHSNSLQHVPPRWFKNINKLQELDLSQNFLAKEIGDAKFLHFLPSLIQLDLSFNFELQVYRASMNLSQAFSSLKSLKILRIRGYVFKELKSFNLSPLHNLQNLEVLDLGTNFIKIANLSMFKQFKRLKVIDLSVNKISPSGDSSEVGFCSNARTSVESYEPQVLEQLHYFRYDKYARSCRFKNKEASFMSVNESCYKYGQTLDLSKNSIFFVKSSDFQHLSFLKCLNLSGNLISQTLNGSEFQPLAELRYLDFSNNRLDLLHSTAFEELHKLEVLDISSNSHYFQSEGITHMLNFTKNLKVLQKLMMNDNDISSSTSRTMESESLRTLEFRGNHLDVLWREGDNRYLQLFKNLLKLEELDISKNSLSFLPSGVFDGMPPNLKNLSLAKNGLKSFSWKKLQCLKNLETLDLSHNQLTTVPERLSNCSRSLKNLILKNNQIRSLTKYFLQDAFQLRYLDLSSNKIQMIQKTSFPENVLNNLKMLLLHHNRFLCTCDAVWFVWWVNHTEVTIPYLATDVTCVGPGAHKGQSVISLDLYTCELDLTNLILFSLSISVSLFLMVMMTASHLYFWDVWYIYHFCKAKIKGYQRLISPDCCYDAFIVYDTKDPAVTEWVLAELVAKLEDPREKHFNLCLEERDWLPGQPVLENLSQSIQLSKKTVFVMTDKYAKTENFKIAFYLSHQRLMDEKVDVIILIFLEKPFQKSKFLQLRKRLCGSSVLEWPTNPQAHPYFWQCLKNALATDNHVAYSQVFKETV
Method in brief: (§1)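 Cells are seeded and grown for 24 h. Compounds or DMSO are then added and incubated 18 h at 37 °C. Quanti-Blue is added, and SEAP is read after thirty minutes. EC50 values are normalized, with RLU from 50 μM reference standard setting 100% Ymax.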

TLR8 = target: T2, TLR8 (Homo sapiens, UniProt Q9NR97); experiment: In vitro human TLR8 binding reporter assay (HEK-Blue, NF-kB/AP1-inducible SEAP); type: cell-based; conditions: activity range class, read-out: TLR8 Agonist EC50
T2 construct: human HEK-Blue cells co-expressing a TLR7 or TLR8 gene
T2 sequence (Q9NR97 27-1041): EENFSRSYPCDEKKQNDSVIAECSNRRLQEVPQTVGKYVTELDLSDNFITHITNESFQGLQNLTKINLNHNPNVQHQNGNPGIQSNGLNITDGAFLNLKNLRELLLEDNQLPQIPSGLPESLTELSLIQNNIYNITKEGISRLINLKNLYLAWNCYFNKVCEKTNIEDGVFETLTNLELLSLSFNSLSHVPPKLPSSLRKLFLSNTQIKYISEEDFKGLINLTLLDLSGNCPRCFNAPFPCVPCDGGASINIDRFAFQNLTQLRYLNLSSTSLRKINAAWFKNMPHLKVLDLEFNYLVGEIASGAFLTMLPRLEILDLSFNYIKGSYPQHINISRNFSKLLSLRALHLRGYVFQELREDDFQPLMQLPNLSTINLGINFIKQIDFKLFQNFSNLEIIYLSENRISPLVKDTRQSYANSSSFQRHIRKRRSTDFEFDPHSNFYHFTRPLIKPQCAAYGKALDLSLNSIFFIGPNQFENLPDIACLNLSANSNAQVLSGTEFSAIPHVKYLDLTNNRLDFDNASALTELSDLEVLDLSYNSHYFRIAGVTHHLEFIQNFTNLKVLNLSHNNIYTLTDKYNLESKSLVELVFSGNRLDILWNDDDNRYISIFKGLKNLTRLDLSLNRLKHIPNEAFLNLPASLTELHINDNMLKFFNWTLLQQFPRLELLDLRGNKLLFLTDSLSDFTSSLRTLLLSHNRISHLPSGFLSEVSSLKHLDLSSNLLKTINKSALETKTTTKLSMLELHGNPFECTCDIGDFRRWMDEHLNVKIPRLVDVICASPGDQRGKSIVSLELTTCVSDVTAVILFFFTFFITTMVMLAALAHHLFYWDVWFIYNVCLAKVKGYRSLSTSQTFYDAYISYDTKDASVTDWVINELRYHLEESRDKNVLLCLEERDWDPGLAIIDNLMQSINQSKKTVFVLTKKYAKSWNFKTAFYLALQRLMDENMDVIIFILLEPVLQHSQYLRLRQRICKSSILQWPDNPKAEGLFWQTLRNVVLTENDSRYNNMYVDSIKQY
Method in brief: as §1

THP-1 cells = experiment: Measurement of IL-1β production, hTRF protocol (second alternative procedure), THP-1 cells; type: cell-based, human; conditions: human, read-out: NLRP3 hILIB EC50
Method in brief: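 THP-1 cells differentiated overnight with 50 ng/ml PMA, then plated at 50,000 cells/well in RPMI with 2% FBS onto serial compound dilutions (top final concentration 10 μM) for 2 hours at 37° C. Supernatant IL-1β measured by hTRF (antibodies at 1:40, overnight at 4° C), read at 665/615 nm against a standard curve.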

[1] = Homo sapiens, THP-1, IL-1β production

Row | EC50 (TLR7) | EC50 (TLR8) | EC50 (THP-1 cells; [1]) | EC50 (THP-1 cells; IL-1β production) | SMILES
1 | > 100 µM | > 100 µM | 10.9 µM |  | Nc1nc2cc(-c3ccn[nH]3)ccc2c2nn(CC3COCCN3)cc12 (stereo not drawn) [Example 255]
2 | > 100 µM | > 100 µM | 0.53 µM |  | CC(=O)NC(C)(C)Cn1cc2c(N)nc3cc(-c4ccn[nH]4)ccc3c2n1 [Example 256]
3 | > 100 µM | > 100 µM | 0.86 µM |  | CC(N)Cn1cc2c(N)nc3cc(-c4ccn[nH]4)ccc3c2n1 (stereo not drawn) [Example 257]
4 | > 100 µM | > 100 µM | 1.78 µM |  | CC(=O)N1CCCC1Cn1cc2c(N)nc3cc(-c4ccn[nH]4)ccc3c2n1 (stereo not drawn) [Example 258]
5 | > 100 µM | > 100 µM | 2.29 µM |  | CC(=O)N(C)CCn1cc2c(N)nc3cc(-c4ccn[nH]4)ccc3c2n1 [Example 259]
6 | > 100 µM | > 100 µM | 5.76 µM |  | Nc1nc2cc(-c3ccn[nH]3)ccc2c2nn(CCN3CCOCC3)cc12 [Example 260]
7 | > 100 µM | > 100 µM | 1.29 µM |  | CN(C)CCn1cc2c(N)nc3cc(-c4ccn[nH]4)ccc3c2n1 [Example 261]
8 | > 100 µM | > 100 µM | 0.75 µM |  | CC(C)(Cn1cc2c(N)nc3cc(-c4ccn[nH]4)ccc3c2n1)NC(=O)C1CCCO1 (stereo not drawn) [Example 262]
9 | > 100 µM | > 100 µM | 1.66 µM |  | CCN1CCOCC1Cn1cc2c(N)nc3cc(-c4ccn[nH]4)ccc3c2n1 (stereo not drawn) [Example 263]
10 | > 100 µM | > 100 µM | 0.99 µM |  | CC(C)(F)C(=O)N1CCOCC1Cn1cc2c(N)nc3cc(-c4ccn[nH]4)ccc3c2n1 (stereo not drawn) [Example 264]
11 | > 100 µM | > 100 µM | 2.47 µM |  | COC1CCCN(CCn2cc3c(N)nc4cc(-c5ccn[nH]5)ccc4c3n2)C1 (stereo not drawn) [Example 265]
12 | > 100 µM | > 100 µM | 2.62 µM |  | COC1CCN(CCn2cc3c(N)nc4cc(-c5ccn[nH]5)ccc4c3n2)C1 (stereo not drawn) [Example 266]
13 | > 100 µM | > 100 µM | 1.07 µM |  | CC(C)(N)Cn1cc2c(N)nc3cc(-c4ccn[nH]4)ccc3c2n1 [Example 267]
14 | > 100 µM | > 100 µM | 4.5 µM |  | COC1CN(CCn2cc3c(N)nc4cc(-c5ccn[nH]5)ccc4c3n2)C1 [Example 268]
15 | > 100 µM | > 100 µM | 4.38 µM |  | CC(=O)N1CCOCC1Cn1cc2c(N)nc3cc(-c4ccn[nH]4)ccc3c2n1 (stereo not drawn) [Example 269]
16 | > 100 µM | > 100 µM | 5.18 µM |  | CC(Cn1cc2c(N)nc3cc(-c4ccn[nH]4)ccc3c2n1)NC(=O)C(C)(C)C#N (stereo not drawn) [Example 270]
17 | > 100 µM | > 100 µM | 1.07 µM |  | Nc1nc2cc(-c3ccn[nH]3)ccc2c2nn(CCN3CCC3)cc12 [Example 271]
18 | > 100 µM | > 100 µM | 5.13 µM |  | CCN(CCn1cc2c(N)nc3cc(-c4ccn[nH]4)ccc3c2n1)C(C)=O [Example 272]
19 | > 100 µM | > 100 µM | 5.16 µM |  | CC(Cn1cc2c(N)nc3cc(-c4ccn[nH]4)ccc3c2n1)NC(=O)C(C)(C)F (stereo not drawn) [Example 273]

Row | EC50 (TLR7) | EC50 (TLR8) | EC50 (THP-1 cells; [1]) | EC50 (THP-1 cells; IL-1β production) | SMILES
20 | > 100 µM | > 100 µM | 0.6 µM |  | CCN1CCCC1Cn1cc2c(N)nc3cc(-c4ccn[nH]4)ccc3c2n1 (stereo not drawn) [Example 274]
21 | > 100 µM | > 100 µM | 1.73 µM |  | CC(C)NCCn1cc2c(N)nc3cc(-c4ccn[nH]4)ccc3c2n1 [Example 275]
22 | > 100 µM | > 100 µM | 31.7 µM |  | CC(=O)N1CCN(CCn2cc3c(N)nc4cc(-c5ccn[nH]5)ccc4c3n2)CC1 [Example 276]
23 | > 100 µM | > 100 µM | 2.33 µM |  | CNCCn1cc2c(N)nc3cc(-c4ccn[nH]4)ccc3c2n1 [Example 277]
24 | > 100 µM | > 100 µM | 0.75 µM |  | Nc1nc2cc(-c3ccn[nH]3)ccc2c2nn(CC3CCCN3)cc12 (stereo not drawn) [Example 278]
25 | > 100 µM | > 100 µM | 1.13 µM |  | CCNCCn1cc2c(N)nc3cc(-c4ccn[nH]4)ccc3c2n1 [Example 279]
26 | > 100 µM | > 100 µM | 1.72 µM |  | Nc1nc2cc(-c3ccn[nH]3)ccc2c2nn(CCNC3CCC3)cc12 [Example 280]
27 | > 100 µM | > 100 µM | 0.24 µM |  | CC(CCO)n1cc2c(N)nc3cc(-c4ccn[nH]4)ccc3c2n1 (stereo not drawn) [Example 281]
28 | > 100 µM | > 100 µM | 0.1 µM |  | CC(O)Cn1cc2c(N)nc3cc(-c4ccn[nH]4)ccc3c2n1 (stereo not drawn) [Example 282]
29 | > 100 µM | > 100 µM | 0.12 µM |  | CC(C)(O)Cn1cc2c(N)nc3cc(-c4ccn[nH]4)ccc3c2n1 [Example 283]
30 | > 100 µM | > 100 µM | 0.25 µM |  | CC(O)CCn1cc2c(N)nc3cc(-c4ccn[nH]4)ccc3c2n1 (stereo not drawn) [Example 284]
31 | > 100 µM | > 100 µM | 0.63 µM |  | CC(C)(O)CCn1cc2c(N)nc3cc(-c4ccn[nH]4)ccc3c2n1 [Example 285]
32 | > 100 µM | > 100 µM | 0.41 µM |  | Nc1nc2cc(-c3ccn[nH]3)ccc2c2cn(CCNC(=O)c3ccccn3)cc12 [Example 286, N-[2-[4-amino-7-(1H-pyrazol-5-yl)-2H-pyrrolo[3,4-c]quinolin-2-yl]ethyl]pyridine-2-carboxamide]
33 | 1 to 20 µM | > 100 µM |  | 0.28 µM | CO[C@@H](CO)Cn1cc2c(N)nc3cc(-c4cc[nH]n4)ccc3c2n1 [Example 289, (2R)-3-[4-amino-7-(1H-pyrazol-3-yl)-2H-pyrazolo[4,3-c]quinolin-2-yl]-2-methoxypropan-1-ol, HCl]
34 | > 100 µM | > 100 µM | 0.87 µM |  | CC(=O)NCCn1cc2c(N)nc3cc(-c4cc[nH]n4)ccc3c2n1 [Example 290]
35 | > 100 µM | > 100 µM | 4.65 µM |  | N#CC1(C(=O)NCCn2cc3c(N)nc4cc(-c5cc[nH]n5)ccc4c3n2)CC1 [Example 291]
36 | > 100 µM | > 100 µM | 0.89 µM |  | CC(=O)N[C@@H](CO)Cn1cc2c(N)nc3cc(-c4cc[nH]n4)ccc3c2n1 [Example 292]
37 | > 100 µM | > 100 µM | 0.6 µM |  | CC(C)(Cn1cc2c(N)nc3cc(-c4cc[nH]n4)ccc3c2n1)NC(=O)c1ccc(F)cn1 [Example 293]
